Assay results reported in publication PMC11481179, “Development and Application of Reversible and Irreversible Covalent Probes for Human and Mouse Cathepsin‐K Activity Detection, Revealing Nuclear Activity” (Advanced Science, 2024).

Key:
Jurkat cells = test: Cathepsin labeling in intact Jurkat cells that lack mature CTSK, fluorescent SDS-PAGE; type: cell-based, human; details: probe 5 µM, up to 24 h
Protocol: To further corroborate the selectivity of GD32, we tested the labeling of Jurkat cells, which lack mature CTSK. Intact cells were incubated with the probe for different durations up to 24 h before they were lysed and analyzed by fluorescent SDS‐PAGE. […] These findings led us to select GD32 as a lead compound for further investigation of CTSK's activity and location in different biological and medical samples. page 8: Figure S7. Cathepsin labeling in intact Jurkat cells that lack mature CTSK. Jurkat cells were treated with GD32 or GB123 (5 µM) in a culture medium for different durations up to 24 h, followed by cell lysis, and fluorescent SDS-PAGE analysis. […] The gel was analyzed by western blot with anti CTSK antibody. While pro-CTSK is detected, indicated by the black arrow, the mature CTSK is not detected. (1 picture or pasted object on this page, not shown here)

[1] = target: T1, active CTSK in intact cells (MG-63, U-2 OS, U-87 MG) (Homo sapiens, UniProt P43235); test: Labeling of endogenous CTSK in intact cells, fluorescent SDS-PAGE; type: cell-based; details: probe 5 µM, fluorescent SDS PAGE method
T1 construct: ability to label endogenous CTSK activity in intact cells; endogenous in cells; host or cells: MG-63, U-2 OS, U-87 MG
T1 sequence (P43235 115-329): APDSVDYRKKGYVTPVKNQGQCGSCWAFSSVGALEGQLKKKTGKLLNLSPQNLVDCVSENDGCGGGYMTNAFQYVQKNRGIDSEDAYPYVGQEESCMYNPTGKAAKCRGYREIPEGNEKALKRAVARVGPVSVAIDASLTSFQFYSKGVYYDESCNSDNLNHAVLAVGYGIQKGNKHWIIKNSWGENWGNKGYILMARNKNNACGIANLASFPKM
Protocol: Figure 2 Labeling of endogenous CTSK in intact cells. a) U2‐OS cells were treated with DMSO or 5 µM of the indicated inhibitors in culture medium, for 2 h, then with indicated ABPs [5 µM] in a culture medium for indicated times, followed by cell lysis, SDS‐PAGE separation, and fluorescent scanning of the gel at 635/670 nm. An immunoblot of CTSK of the same gel is presented below. b) Intact MG63 cells were treated with GD32 5 µM in the culture media for indicated times, cell lysates were analyzed as in a. CTSK immunoblot is presented, pro and mature CTSK are indicated by arrows. c) MG63 cells and d) U87MG cells were treated with DMSO, or 5 µM of indicated inhibitors in culture medium for 2 h, followed by incubation with 5 µM of indicated probes for 5 h (GD32 and GD42) and 2 h (GB123), cell lysates were analyzed by fluorescent SDS PAGE as in a. […] Cells were incubated with 5 µM GD32 for 24 h in growth media at indicated pHs, prior to the cell lysis, cell lysates were analysed as in a. […] Input (I), immunoprecipitation (IP), and output (O) were separated by a 14% SDS‐PAGE and scanned for fluorescence. […] We further corroborated the band identity by western blot with an anti‐CTSK antibody, where the mature active CTSK is detected at the same location on the gel (Figure 2). page 6: MG63 Ex/Em 635/670 nm b) Figure S5. […] Cell lysates were analyzed as described above. […]

Compound	fluorescent bands after labeling (Jurkat cells)	detection of binding to active CTSK [1]
C#CCNC(=O)[C@H](CC(C)C)N[C@@H](c1ccc(-c2ccc(S(=O)(=O)CCNC(=O)CCCCC[N+]3=C(/C=C/C=C/C=C4/N(C)c5ccc(S(=O)(=O)O)cc5C4(C)C)C(C)(C)c4cc(S(=O)(=O)O)ccc43)cc2)cc1)C(F)(F)F [GD32]	no fluorescent bands were detected	–
CC(C)C[C@H](N[C@@H](c1ccc(-c2ccc(S(=O)(=O)CCNC(=O)CCCCC[N+]3=C(/C=C/C=C/C=C4/N(C)c5ccc(S(=O)(=O)O)cc5C4(C)C)C(C)(C)c4cc(S(=O)(=O)O)ccc43)cc2)cc1)C(F)(F)F)C(=O)NC1(C#N)CC1 [GD37]	–	could not be detected
